# According to patent US20230077362A1 (CORTEVA AGRISCIENCE LLC, priority 2019, published 2023):
# Legend:
# [1] = tested on: Beet Armyworm (Spodoptera exigua) ("BAW"), second instar larvae; experiment: Bioassay on beet armyworm (BAW), 128-well diet tray assay; type: in vivo; conditions: for pest or weed control at 50 µg/cm2: Spodoptera exigua, read-out: BAW rating; for BAW rating: Table ABC, species BAW, C = not tested, D = no activity noticed
# Summary of the method: (§1)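 Each value represents average percent mortality from eight wells. Larvae were kept in clear-covered trays at 25° C. for five to seven days on a 14-hour light, 10-hour dark schedule before scoring.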
# [2] = tested on: Cabbage Looper (Trichoplusia ni) ("CL"), second instar larvae; experiment: Bioassay on cabbage looper (CL), 128-well diet tray assay; type: in vivo; conditions: for pest or weed control at 50 µg/cm2: Trichoplusia ni, read-out: CL rating; for CL rating: Table ABC, species CL, C = not tested, D = no activity noticed
# Summary of the method: as §1
SMILES,pest or weed control at 50 µg/cm2 [1] [%],pest or weed control at 50 µg/cm2 [2] [%],BAW rating [1],CL rating [2]
"Cc1ccc(COCC(F)(F)F)c(N2C(=O)CS/C2=N\C(=O)Nc2ccc(-c3ncn(-c4ccc(SC(F)(F)F)cc4)n3)cc2)c1 [Compound J367, (Z)-1-(3-(5-Methyl-2-((2,2,2-trifluoroethoxy)methyl)phenyl)-4-oxothiazolidin-2-ylidene)-3-(4-(1-(4-((trifluoromethyl)thio)phenyl)-1H-1,2,4-triazol-3-yl)phenyl)urea]",50 to 100,50 to 100,–,–
"Cc1ccc(OCCC(F)(F)F)c(N2C(=O)CS/C2=N\C(=O)Nc2ccc(-c3ncn(-c4ccc(S(=O)(=O)C(F)(F)F)cc4)n3)cc2F)c1 [Compound J369, (Z)-1-(2-Fluoro-4-(1-(4-((trifluoromethyl)sulfonyl)phenyl)-1H-1,2,4-triazol-3-yl)phenyl)-3-(3-(5-methyl-2-(3,3,3-trifluoropropoxy)phenyl)-4-oxothiazolidin-2-ylidene)urea]",50 to 100,50 to 100,–,–
"CCCc1ccc(N(C)C)cc1N1C(=O)CS/C1=N\C(=O)Nc1ccc(-c2ncn(-c3ccc(S(=O)(=O)C(F)(F)F)cc3)n2)cc1F [Compound J370, (Z)-1-(3-(5-(Dimethylamino)-2-propylphenyl)-4-oxothiazolidin-2-ylidene)-3-(2-fluoro-4-(1-(4-((trifluoromethyl)sulfonyl)phenyl)-1H-1,2,4-triazol-3-yl)phenyl)urea]",50 to 100,50 to 100,–,–
"CC(C)c1cc(F)c(N(C)C)cc1N1C(=O)CS/C1=N\C(=O)Nc1ccc(-c2ncn(-c3ccc(S(=O)(=O)C(F)(F)F)cc3)n2)cc1F [Compound J371, (Z)-1-(3-(5-(dimethylamino)-4-fluoro-2-isopropylphenyl)-4-oxothiazolidin-2-ylidene)-3-(2-fluoro-4-(1-(4-((trifluoromethyl)sulfonyl)phenyl)-1H-1,2,4-triazol-3-yl)phenyl)urea]",50 to 100,50 to 100,–,–
"N#Cc1ccc(OCCC(F)(F)F)c(N2C(=O)CS/C2=N\C(=O)Nc2ccc(-c3ncn(-c4ccc(S(=O)(=O)C(F)(F)F)cc4)n3)cc2F)c1 [Compound J372, (Z)-1-(3-(5-Cyano-2-(3,3,3-trifluoropropoxy)phenyl)-4-oxothiazolidin-2-ylidene)-3-(2-fluoro-4-(1-(4-((trifluoromethyl)sulfonyl)phenyl)-1H-1,2,4-triazol-3-yl)phenyl)urea]",50 to 100,50 to 100,–,–
"Cc1ccc(OCCC(F)(F)F)c(N2C(=O)CS/C2=N\C(=O)Nc2ccc(-c3ncn(-c4ccc(S(=O)(=O)C(F)(F)F)cc4)n3)cc2C)c1 [Compound J373, (Z)-1-(3-(5-Methyl-2-(3,3,3-trifluoropropoxy)phenyl)-4-oxothiazolidin-2-ylidene)-3-(2-methyl-4-(1-(4-((trifluoromethyl)sulfonyl)phenyl)-1H-1,2,4-triazol-3-yl)phenyl)urea]",50 to 100,50 to 100,–,–
"CCCc1ccc(N(C)C)cc1N1C(=O)CS/C1=N\C(=O)Nc1ccc(-c2ncn(-c3ccc(S(=O)(=O)C(F)(F)F)cc3)n2)cc1C [Compound J374, (Z)-1-(3-(5-(Dimethylamino)-2-propylphenyl)-4-oxothiazolidin-2-ylidene)-3-(2-methyl-4-(1-(4-((trifluoromethyl)sulfonyl)phenyl)-1H-1,2,4-triazol-3-yl)phenyl)urea]",50 to 100,50 to 100,–,–
"Cc1cc(-c2ncn(-c3ccc(S(=O)(=O)C(F)(F)F)cc3)n2)ccc1NC(=O)/N=C1\SCC(=O)N1c1cc(N(C)C)c(F)cc1C(C)C [Compound J375, (Z)-1-(3-(5-(Dimethylamino)-4-fluoro-2-isopropylphenyl)-4-oxothiazolidin-2-ylidene)-3-(2-methyl-4-(1-(4-((trifluoromethyl)sulfonyl)phenyl)-1H-1,2,4-triazol-3-yl)phenyl)urea]",50 to 100,50 to 100,–,–
"Cc1cc(-c2ncn(-c3ccc(S(=O)(=O)C(F)(F)F)cc3)n2)ccc1NC(=O)/N=C1\SCC(=O)N1c1cc(C#N)ccc1OCCC(F)(F)F [Compound J376, (Z)-1-(3-(5-Cyano-2-(3,3,3-trifluoropropoxy)phenyl)-4-oxothiazolidin-2-ylidene)-3-(2-methyl-4-(1-(4-((trifluoromethyl)sulfonyl)phenyl)-1H-1,2,4-triazol-3-yl)phenyl)urea]",50 to 100,50 to 100,–,–
COC(c1ccc(C)cc1N1C(=O)CS/C1=N\C(=O)Nc1ccc(-c2ncn(-c3ccc(C(F)(F)F)cn3)n2)cc1F)C(F)(F)F (centres unmarked) [Compound J377],–,–,A (50-100),A (50-100)
CCOC(C)c1ccc(C)cc1N1C(=O)CS/C1=N\C(=O)Nc1ccc(-c2ncn(-c3ccc(C(F)(F)F)cn3)n2)cc1F (centres unmarked) [Compound J378],–,–,A (50-100),A (50-100)
"CC(C)c1ccc(N(C)C)cc1N1C(=O)CS/C1=N\C(=O)Nc1ccc(-c2ncn(-c3ccc([S+]([O-])C(F)(F)F)cc3)n2)cc1F (centres unmarked) [Compound J379, (Z)-1-(3-(5-(Dimethylamino)-2-isopropylphenyl)-4-oxothiazolidin-2-ylidene)-3-(2-fluoro-4-(1-(4-((trifluoromethyl)sulfinyl)phenyl)-1H-1,2,4-triazol-3-yl)phenyl)urea]",50 to 100,50 to 100,–,–
"Cc1ccc(COCC(F)(F)F)c(N2C(=O)CS/C2=N\C(=O)Nc2ccc(-c3ncn(-c4ccc([S+]([O-])C(F)(F)F)cc4)n3)cc2F)c1 (centres unmarked) [Compound J380, (Z)-1-(2-Fluoro-4-(1-(4-((trifluoromethyl)sulfinyl)phenyl)-1H-1,2,4-triazol-3-yl)phenyl)-3-(3-(5-methyl-2-((2,2,2-trifluoroethoxy)methyl)phenyl)-4-oxothiazolidin-2-ylidene)urea]",50 to 100,50 to 100,–,–
COC(C)c1ccc(C)cc1N1C(=O)CS/C1=N\C(=O)Nc1ccc(-c2ccn(-c3ccc(C(F)(F)F)nn3)n2)cc1F (centres unmarked) [Compound J381],–,–,A (50-100),A (50-100)
"Cc1ccc(OCCC(F)(F)F)c(N2C(=O)CS/C2=N\C(=O)Nc2ccc(-c3ncn(-c4ccc([S+]([O-])C(F)(F)F)cc4)n3)cc2F)c1 (centres unmarked) [Compound J382, (Z)-1-(2-Fluoro-4-(1-(4-((trifluoromethyl)sulfinyl)phenyl)-1H-1,2,4-triazol-3-yl)phenyl)-3-(3-(5-methyl-2-(3,3,3-trifluoropropoxy)phenyl)-4-oxothiazolidin-2-ylidene)urea]",50 to 100,50 to 100,–,–
"CCCc1ccc(N(C)C)cc1N1C(=O)CS/C1=N\C(=O)Nc1ccc(-c2ncn(-c3ccc([S+]([O-])C(F)(F)F)cc3)n2)cc1F (centres unmarked) [Compound J383, (Z)-1-(3-(5-(Dimethylamino)-2-propylphenyl)-4-oxothiazolidin-2-ylidene)-3-(2-fluoro-4-(1-(4-((trifluoromethyl)sulfinyl)phenyl)-1H-1,2,4-triazol-3-yl)phenyl)urea]",50 to 100,50 to 100,–,–
